*: point of attachment. CH2F = FC*
How the values were obtained:
human recombinant CtsB = test: Fluorescent protease activity assay, recombinant CtsB; assay type: biochemical; details: 20 nM CtsB, 50 μM Ac-PLVQ-AMC, inhibitor 2 μM; 0.1 M sodium acetic buffer pH 4.6, 12 min, Ex/Em 353/442 nm
Method: Ac-PLVE-FMK and Ac-VLPE-FMK inhibitory properties were evaluated against human recombinant CtsL and B. These recombinant enzymes were expressed in E. coli via plasmid transformation and further purification, using nickel-nitrilotriacetic acid (Ni-NTA) sepharose. Gel zymography assay was used to provide a preliminary evaluation of the ability of these recombinant proteins to degrade the gelatin substrate previously embedded in the gel (Supplementary Figure S1). Following Coomassie staining, the Cts were detectable as single bands. As expected, a translucent area was evident, due to the substrate digestion in the proximity of the proteins. Then, the recombinant proteins were tested for their ability to digest the Triticain-α substrate Ac-PLVQ via fluorescent protease activity assay, previously optimized by our group. This probe was conjugated with the fluorogenic chromophore 7-amino-4-methylcoumarin (Ac-PLVQ-AMC). After proteolytic cleavage, it emits a detectable fluorescent signal.
Total RNA extract from retinoblastoma […] cells was used to obtain cDNA. A pair of oligonucleotides ([…] and […]) was used for the amplification of DNA fragment containing CtsB, the product of which was ligated into pET15b (Merck Millipore, Billerica, MA, USA) using NdeI and XhoI. DNA fragment containing CtsL was amplified using a pair of oligonucleotides ([…] and […]) and ligated into pET28a (+) (Merck Millipore, Billerica, MA, USA) using NheI and HindIII. […]
The activity of recombinant CtsL and B was detected by the hydrolysis of the fluorogenic substrate Ac-Pro-Leu-Val-Gln- 7-amino-4-methylcoumarin (AMC) (Pepmic Suzhou Jiangsu, China). […] The substrate was added to a final concentration of 50 μM, and its hydrolysis was continuously measured for 12 min using a CLARIOstar® Plus plate reader (BMG Labtech Ortenberg Baden-Württemberg, Germany) at excitation and emission wavelengths of 353 and 442 nm, respectively.

A498 cells = test: Cell viability/proliferation (MTT), A498; assay type: cell-based, human; details: 2.5–250 μM; for Cell viability: 72 h; for Effect on cell proliferation: within 48 h
Method: Figure 3 The effect of the peptide inhibitors on human 769-P and A498 renal cancer cell proliferation and proteolytic activity. (a) 769-P and (b) A498 cells were treated with increasing doses of Ac-PLVE-FMK (red bars) and Ac-VLPE-FMK (blue bars) (2.5–250 μM). Cell proliferation was measured after 24, 48, and 72 h via MTT (3-(4,5-dimethylthiazol-2-yl)-2,5-diphenyltetrazolium bromide) assay. Data represent the mean (±S.D.) of at least three independent experiments, each performed in triplicate. (c) Fluorescence microscopy evaluation and quantification of the cell proteolytic activity in 769-P and (d) A498 cells towards the fluorogenic substrate Ac-PLVQ-AMC in the absence or presence of Ac-PLVE-FMK and Ac-VLPE-FMK. The cells were seeded in a 96-well plate and after exposure to the peptides for 30 min prior incubation with the fluorescent substrate Ac-PLVQ-AMC for 10 min. Data are expressed as mean (±S.D.), and significance was calculated through one-way ANOVA followed by Dunnet’s test. * = p < 0.05, ** = p < 0.01, *** = p < 0.001.
The human renal cancer cell line lines […], A498 were obtained from Dr. Vadim Pokrovsky (purchased from American Type Culture Collection). The cells were cultured in RPMI 1640, supplemented with 10% fetal bovine serum and 1% mixture of antibiotics penicillin-streptomycin (all from Gibco, Waltham, MA, USA) at 5% CO2 and 37 °C in a humidified chamber. Cells were grown to confluence and harvested by trypsinization, using a 0.25 mg/mL trypsin/EDTA solution (ThermoFisher, Carlsbad, CA, USA) and resuspended in the fresh culture medium. Viable cells were enumerated on the Countess II FL Automated Cell Counter (ThermoFisher, Waltham, MA, USA), following Trypan Blue staining. The cell lines were tested for mycoplasma contamination regularly, using the Molecular Probes™ MycoFluor Mycoplasma Detection Kit (ThermoFisher, Waltham, MA, USA).
The cell number was evaluated by counting viable cells using the MTT (3-(4,5-dimethylthiazol-2-yl)-2,5-diphenyltetrazolium bromide) colorimetric assay. A total of 2 × 10^4 cells/well were seeded on independent 96-well plates for each time point (0, 24, 48, and 72 h), with five replicates and treated with two inhibitors (2.5–250 μM). Then, 10 µL of the MTT reagent was added to each well, and cells were incubated for another 5 h. Next, the absorbance value was measured using a CLARIOstar® Plus plate reader (BMG Labtech, Ortenberg, Germany) at 490 nm. Triplicate wells were assayed, and S.D.s were determined.

[1] = system: 769-P cells (endolysosomal compartment); test: Neutral red assay (endolysosomal integrity), 769-P; assay type: cell-based, human; details: 2.5–250 μM; 48 h
Method: Figure S6. The effect of the peptide inhibitors on human 769‐P and A498 renal cancer cell on
lysosomes integrity. (a) 769‐P and (b) A498 cells were treated with increasing doses of Ac‐PLVE‐FMK
(red bars) and Ac‐VLPE‐FMK (blue bars) (2.5–250 μM). NR uptake was measured after 24, 48, and 72
h via MTT assay. (c) LysoTracker red evaluation in 769‐P and (d) A498 cells after 24, 48, and 72 h with
the inhibitors (20 μM). Data represent the mean (± S.D.) of at least three independent experiments,
each performed in triplicate.

Ac-PLVE-CH2F [Ac-PLVE-FMK] was tested, and the “Inhibition of Ac-PLVQ-AMC cleavage (fluorescent signal)” value (human recombinant CtsB) was “the intensity of the fluorescent signal was significantly affected”, the Cell viability (A498 cells) was “cell viability increased, reaching values not significantly different from the control cells” and the “Effect on cell proliferation” value (A498 cells) was “cytostatic properties on both cell lines only within 48 h of treatment”. For the same substance, the Neutral red uptake [1] was “slightly increasing”.

For Ac-VLPE-CH2F [Ac-VLPE-FMK], the “Inhibition of Ac-PLVQ-AMC cleavage (fluorescent signal)” value (human recombinant CtsB) was “the intensity of the fluorescent signal was significantly affected”, the Cell viability (A498 cells) was “cell viability increased, reaching values not significantly different from the control cells” and the “Effect on cell proliferation” value (A498 cells) was “cytostatic properties on both cell lines only within 48 h of treatment”. The Neutral red uptake [1] was “slightly increasing”.

From PMC7281206, “Cysteine Cathepsins Inhibition Affects Their Expression and Human Renal Cancer Cell Phenotype” (Cancers, 2020)
